Assays:
[1] = test system: breast cancer cells; set-up: method as in doi:10.1039/C3MD00290J; settings: earlier flow cytometry; cited from earlier work
[2] = test system: HCT116; test: Combination growth inhibition with cytotoxic drugs (Bliss model); format: cell-based, human; settings: HCT116, derivative 3 50 nM plus paclitaxel
Protocol: (§1) As described in detail previously, cell proliferation was measured using a thymidine incorporation assay by seeding 3000 cells in each well using 96 well plates with varying concentrations of inhibitors for 3 days. Experiments were performed in triplicate with a minimum of two experimental repeats. Briefly, ^3H-thymidine (0.04 µCi) was added to each well and incubated for 5 h, after which the cells were gathered onto glass fibre filters using an automated TomTec harvester. Filters were incubated with Betaplate Scint and thymidine incorporation determined with Trilux/Betaplate counter showing the percentage of cells incorporated with ^3H-thymidine into the DNA helix.
(§2) As described previously for everolimus and other inhibitors, we employed the Bliss additivism model to classify the drug combinations as additive, synergistic or antagonistic. A theoretical curve was calculated for combined inhibition using the equation Ebliss = (EA + EB) − (EA × EB), where EA and EB are the fractional inhibitions obtained by drug A alone and drug B alone at specific concentrations. Ebliss is the fractional inhibition that would be expected if the effects of the two drugs were additive. The difference (Bliss) in the experimentally measured fractional inhibition (Expt) and Ebliss are defined as synergism […], additive (Expt = Ebliss), and antagonism […]. Bliss = 0 would indicate the combination is additive; Bliss > 0 would indicate the percentage increase in maximal inhibition above additivity (synergy); and Bliss < 0 would indicate the percentage decrease in maximal inhibition below additivity (antagonism). The data were analysed using a one-way ANOVA coupled with multiple comparisons versus treatment control applying the Holm-Sidak method correction, where p < 0.05 denotes a statistically significant difference.

[3] = test system: MDA-MB-231; test: as above; format: cell-based, human
Protocol: as §1, §2

[4] = test system: MDA-MB-231 breast cancer cells; test: DNA damage by γH2AX (flow cytometry, immunoblot); format: cell-based, human; settings: MDA-MB-231, 1 μM, 24 h; for Proportion of cells with high γ-H2AX phosphorylation: basal level 1 %
Protocol: (§3) As described in detail previously, cells (10^6 cells per well) were grown in 6 well plates and incubated with inhibitors for the indicated time. Cells were harvested, washed and resuspended in 1 ml of blocking buffer (1 % FCS/PBS), and incubated with antibody to γ-H2AX (phosphorylated Ser139) (Millipore, USA) in blocking buffer (1:500 dilution) at room temperature for 2 h. Cells were washed, incubated with goat anti-mouse Alex 488 Fab fragment secondary antibody (Invitrogen, New Zealand) (1:400 in blocking buffer for 1 h, at room temperature; dark), washed and resuspended in 1 ml of blocking buffer containing RNase (1 μg/ml) and propidium iodide (PI) (10 μg/ml) for 30 min at room temperature. Cells were analysed in a Becton–Dickinson LSRII and profiles were analysed with ModFit LT 3 software.
As described in detail previously cells were grown to log-phase, washed twice with ice-cold PBS, and lysed in SDS lysis buffer according to the manufacturer’s protocol (Cell Signalling Technology, Danvers, MA, USA). Protein concentration was quantified using the BCA protein assay reagent bicinchoninic acid (Sigma, New Zealand). Cell lysates containing 25 μg of protein were separated by SDS-PAGE and transferred to PVDF membranes (Millipore). Membranes were immunoblotted with antibodies against to γ-H2AX (phosphorylated Ser139) (Millipore, USA), and actin (Millipore), using SuperSignalWest Pico (Thermo Scientific, Waltham,MA, USA) chemiluminescence reagents. Antibody reactivity was visualized using the chemiluminescence detection system by Fujifilm Las-3000.

[5] = Aqueous solubility; format: physicochemical
[6] = test system: MDA-MB-231 breast cancer cells; test: Microtubule imaging (anti-tubulin and Hoechst staining); format: cell-based, human; settings: MDA-MB-231, 16 h; for Microtubule arrangement: FITC anti-tubulin staining
Protocol: Cells were grown on a glass slide with and without inhibitors, fixed by 4 % paraformaldehyde, permeabilised by 0.5 % Triton X-PBS and incubated with 5 % BSA/PBS containing FITC-labelled anti-tubulin antibody. Microtubule arrangement was monitored by fluorescence staining of microtubules using anti-tubulin and analysed by fluorescent microscopy using Floid imaging station (460× magnification). Nucleus was stained with 2 μg/ml Hoechst stain (Life Technology) for 10 min at room temperature. Hoechst stain emits blue fluorescence when bound to double strand DNA.

[7] = Tolerability in mice after intraperitoneal injection; format: in vivo; settings: 10 mg/Kg intraperitoneal injection, 20 % HP-β CD
Protocol: (§4) Male CD-1 mice were obtained from Vernon Jansen Unit (University of Auckland) and housed in cages with a 12-hour light/dark cycle and received sterilized food and water ad libitum. Studies and procedures were conducted with prior approval of the Ethics Committee of the University of Auckland (AEC approval number 1190). Derivative 3 was prepared in 20 % HP-β CD as a fine yellow suspension, and administered (at 10 mg/Kg) as intraperitoneal bolus injection. Blood samples were collected via a terminal cardiac bleeding (n = 3 mice/time) at 0.167, 0.5, 1, 2 and 6 h post dose. Blood was collected in ice cold K2-EDTA tubes and kept on ice. All samples were centrifuged at 6500 rpm for 5 min at room temperature, obtained plasma were stored at −80 °C until analysed by LC–MS/MS.
Derivative 3 was chosen for a small pharmacokinetic study.

[8] = test system: MDA-MB-468; test: Cell proliferation assay (3H-thymidine incorporation, 3 days); format: cell-based; settings: Homo sapiens, 72 h; MDA-MB-468, thymidine incorporation, 3 days treatment; read-out: IC50 (50 % inhibition of growth)
Protocol: (§5) Culture conditions have been described in detail previously; human breast cancer cell lines MCF-7, T47D, MDA-MB-468, MDA-MB-231, human epithelial carcinoma cell line A431 and human colon cancer cell line HCT116 were purchased from the American Type Culture Collection (ATCC). Cells were grown in α-MEM containing 5 % fetal calf serum, insulin/transferrin/selenium supplement, added according to the manufacturer’s instructions (Roche), as well as penicillin/streptomycin (100 U/ml and 100 μg/ml, respectively).
as §1

[9] = test system: MDA-MB-231; test: as above; format: cell-based; settings: Homo sapiens, 72 h; MDA-MB-231, thymidine incorporation, 3 days treatment; read-out: IC50 (50 % inhibition of growth)
Protocol: as §5, §1

[10] = test system: MCF7; test: as above; format: cell-based; settings: Homo sapiens, 72 h, 3 days treatment, read-out: IC50 (50 % inhibition of growth)
Protocol: as §5, §1

[11] = test system: A431 cells; test: Calcium flux assay (EGF-induced, Fluo-4); format: cell-based, human; settings: pre-treatment at 25 and 50 μM, EGF 400 ng/ml
Protocol: A431 cells were plated onto 96 wells until confluent. Cells were loaded with 5 µM Fluo-4 acetoxymethyl ester with 0.003 % pluronic acid and 2.5 mM Probenecid (Molecular Probes) for 30 min at 37 °C, then washed with buffer and incubated for another 30 min. Epidermal growth factor (EGF) (400 ng/ml) was used as an activator. EGF alone or with derivative 3 were added to A431 cells to determine the inhibitory activity on calcium flux of derivative 3, and compared with buffer (negative control) and 1 µg/ml ionomycin (positive control). Fluorescence signal was recorded from the bottom of the plate at 1 s intervals (3 wells per/s) using an EnSpire 2300 Multimode Plate Reader (Perkin-Elmer) at excitation wavelength of 494 nm and emission wavelength of 506 nm (25 °C, 3 mm measurement height, 50 flashes). Baseline fluorescence was recorded for 10 s, after which buffer alone, EGF alone or with drug, was added and fluorescence was captured for a further 45 s. Next, ionomycin was added and fluorescence was recorded for another 45 s. Three independent experiments were performed.

[12] = Mouse plasma pharmacokinetics; format: in vivo; settings: ip, male CD-1 mice, 10 mg/Kg intraperitoneal
Protocol: as §4
Briefly, plasma samples were assayed for derivative 3 using liquid chromatography-tandem mass spectrometry (LC–MS/MS) method. Briefly, derivative 3 was spiked in the drug mouse plasma to obtain a concentration 0.003, 0.03, 0.3, 3, 10 and 30 µM to construct a calibration curve. Derivative 1 (a structural analogue of 3) was used as an internal standard in LC–MS/MS assay at a concentration of 0.5 μM added to acetonitrile. Drug was extracted from plasma using direct protein precipitation with ice cold acetonitrile (1:4 v/v) and quantified by peak area ratio of 3 versus 1 using a calibration curve prepared with derivative 3 as outlined above. LC–MS/MS used was Agilent 6410b with multimode ion source operated in atmospheric pressure chemical ionization (APCI) positive mode attached to an Agilent 1200 series HPLC system. LC–MS/MS used an Agilent Zorbax SB-C18 column (2.1 × 50 mm, 5 µM, USA) operated at 35 °C, at a flow rate 0.5 mL/min with a gradient consisting of 0.01 % formic acid in MilliQ water (Millipore, USA) and 0.01 % formic acid in 80 % acetonitrile-20 % MilliQ water. The MS1 and MS2 were operated at unit resolution in the multiple reaction monitoring (MRM) mode, monitoring the transition of the protonated molecular ions at m/z 368 to the product ions at m/z 245 for derivative 3 and monitoring the transition of the protonated molecular ions at m/z 372 to the product ions at m/z 245 for derivative 1 (internal standard). […] The lower limit of quantification for derivative 3 in plasma was 0.003 μM.
Mean mouse plasma-time data for derivative 3 was analysed with non-compartmental method using Phoenix WinNonlin 6.2 (Pharsight Corporation, Mountain View, CA) as shown in Table 1.

[13] = test system: MDA-MB-231 breast cancer cells; test: Cell cycle distribution by flow cytometry; format: cell-based, human; settings: MDA-MB-231, 1 μM, 24 h
Protocol: as §3

[14] = test system: T47D; test: Cell proliferation assay (3H-thymidine incorporation, 3 days); format: cell-based, human; settings: 3 days treatment
Protocol: as §5, §1

In the case of `Nc1c(C(=O)Nc2cccc(Cl)c2)sc2nc3c(cc12)C(=O)CCC3` [derivative 1], the Cell cycle effect [1] is listed as “caused G2/M arrest”.

With `COc1cccc(NC(=O)c2sc3nc4c(cc3c2N)C(=O)CCC4)c1` [derivative 3] the “Drug interaction with paclitaxel (Bliss)” value [2] was “Synergism”, the “Drug interaction with camptothecin (Bliss)” value ([3]; MDA-MB-231, derivative 3 50 nM plus camptothecin) was “only additive effects” and the “Drug interaction with doxorubicin (Bliss)” value ([3]; MDA-MB-231, derivative 3 50 nM plus doxorubicin) was “only additive effects”. The “Drug interaction with paclitaxel (Bliss)” value ([3]; MDA-MB-231, derivative 3 50 nM plus paclitaxel) was “synergistic effect”, the “DNA damage (γH2AX)” value [4] was “did not initiate DNA damage” and the “Proportion of cells with high γ-H2AX phosphorylation” value [4] was 4%. For the same molecule, the Aqueous solubility [5] was “poor”, the Cell morphology [6] was “membrane blebbing” and the Microtubule arrangement [6] was “No microtubule bundles were observed”. For the same molecule, the Nuclear phenotype ([6]; Hoechst staining) was “abnormal nuclear phenotype and possessed multinuclear cells”, the Tolerability [7] was “well tolerated with no acute reaction observed” and the IC50 [8] was < 100 nM. For the same molecule, the IC50 [9] was < 100 nM, the IC50 [10] was < 100 nM and the “Effect on increase in intracellular calcium levels induced by EGF” value [11] was “no effect”. For the same molecule, the half-life ([12]; male, CD-1, mouse, 10 mg/kg, read-out: t1/2 (elimination half-life)) was > 240 min, the k el ([12]; mouse, 20 % HP-β CD suspension, read-out: Ke (elimination rate constant) (converted)) was 4.72e-06 s⁻¹ and the AUC(0-inf) ([12]; mouse, extrapolated to infinity) was 0.19 µM·h. For the same molecule, the Tmax ([12]; mouse, post injection, read-out: Time of maximal plasma concentration (converted)) was 30 min, the Cmax ([12]; mouse, read-out: Cmax (maximum concentration in plasma)) was 87 nM and the AUC(0-t) ([12]; mouse, up to 6 h, read-out: AUC0–6 h) was 0.13 µM·h. For the same molecule, the Cell cycle effect [13] was “induce G2/M phase cell cycle arrest”.

In the case of `CC[C@@]1(O)C(=O)OCc2c1cc1n(c2=O)Cc2cc3ccccc3nc2-1` [camptothecin, reference compound], the “Proportion of cells with high γ-H2AX phosphorylation” value [4] is reported as 69%.

For `CC(=O)O[C@H]1C(=O)[C@@]2(C)[C@H]([C@H](OC(=O)c3ccccc3)[C@]3(O)C[C@H](OC(=O)[C@H](O)[C@@H](NC(=O)c4ccccc4)c4ccccc4)C(C)=C1C3(C)C)[C@]1(OC(C)=O)CO[C@@H]1C[C@@H]2O` [paclitaxel, reference compound], the Microtubule arrangement [6] was “shortened and bundling of microtubules”.

With `Nc1c(C(=O)Nc2cccc3ccccc23)sc2nc3c(cc12)C(=O)CCC3` [derivative 5] the “IC50 (50 % inhibition of growth)” value [14] was “not reached”.

Reference: publication PMC4785615, “Evidence that phospholipase C is involved in the antitumour action of NSC768313, a new thieno[2,3-b]pyridine derivative” (Cancer Cell International, 2016)
